Reference: ChEMBL document CHEMBL5104155, “Novel etodolac derivatives as eukaryotic elongation factor 2 kinase (eEF2K) inhibitors for targeted cancer therapy” (RSC Med Chem, 2022)
Activity calls are given as the source filed them. The rule behind the calls is not given here.

Columns and labels:
Type in all cases: cell-based
[1] = biological target: T1, Eukaryotic elongation factor 2 kinase (Homo sapiens) (UniProt O00418); test: Inhibition of eEF2K in human MDA-MB-231 cells assessed as decrease in phosphorylation of eEF2 at Thr56 residue at 5 uM incubated for 2 hrs by western blot analysis
T1 sequence (whole entry): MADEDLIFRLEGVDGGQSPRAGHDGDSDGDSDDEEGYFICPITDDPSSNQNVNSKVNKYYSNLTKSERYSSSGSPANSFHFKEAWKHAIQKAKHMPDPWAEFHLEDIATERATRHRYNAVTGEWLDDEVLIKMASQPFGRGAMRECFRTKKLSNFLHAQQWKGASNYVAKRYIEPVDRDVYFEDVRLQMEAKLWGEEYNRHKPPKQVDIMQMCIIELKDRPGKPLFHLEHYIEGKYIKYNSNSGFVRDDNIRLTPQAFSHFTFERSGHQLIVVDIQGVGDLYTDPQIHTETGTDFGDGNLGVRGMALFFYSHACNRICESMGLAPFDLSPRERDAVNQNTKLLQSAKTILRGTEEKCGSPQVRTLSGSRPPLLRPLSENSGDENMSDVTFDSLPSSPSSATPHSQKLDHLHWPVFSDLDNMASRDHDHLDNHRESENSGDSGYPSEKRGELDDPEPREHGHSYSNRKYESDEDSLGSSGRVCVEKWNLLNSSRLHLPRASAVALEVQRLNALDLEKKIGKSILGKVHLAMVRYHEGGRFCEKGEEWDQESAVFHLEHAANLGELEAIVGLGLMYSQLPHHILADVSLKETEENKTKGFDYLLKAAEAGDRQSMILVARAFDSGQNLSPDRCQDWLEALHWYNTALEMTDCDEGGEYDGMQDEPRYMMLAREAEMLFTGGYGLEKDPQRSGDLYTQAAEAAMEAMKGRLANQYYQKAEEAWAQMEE

[2] = biological target: T1, Eukaryotic elongation factor 2 kinase (Homo sapiens); test: Inhibition of eEF2K in human MDA-MB-231 cells assessed as decrease in phosphorylation of eEF2 at Thr56 residue at 2.5 uM incubated for 2 hrs by western blot analysis
[3] = biological target: T1, Eukaryotic elongation factor 2 kinase (Homo sapiens); test: Inhibition of eEF2K in human MDA-MB-231 cells assessed as decrease in phosphorylation of eEF2 at Thr56 residue at 20 uM incubated for 2 hrs by western blot analysis

Row | Structure (SMILES) | inhibition [1] | inhibition [2] | inhibition [3]
1 | CCc1cccc2c3c([nH]c12)C(CC)(CC(=O)NCCN1CCCCC1)OCC3 (stereo not given) | Active | Active | –
2 | CCc1cccc2c3c([nH]c12)C(CC)(CC(=O)N1CCCCC1)OCC3 (stereo not given) | – | – | Active
3 | CCc1cccc2c3c([nH]c12)C(CC)(CC(=O)N1CCN(C)CC1)OCC3 (stereo not given) | Active | Active | –
